≈ marks a conversion by molar mass, not a printed value.
Legend:
Format in all cases: functional
Staphylococcus = experiment: Antibacterial activity against methicillin-susceptible, coagulase-negative Staphylococcus obtained from complicated skin and skin structure infections by agar dilution method
Streptococcus agalactiae = experiment: Antibacterial activity against Streptococcus agalactiae obtained from complicated skin and skin structure infections by agar dilution method
Micrococcus = experiment: Antibacterial activity against Micrococcus spp. obtained from complicated skin and skin structure infections by agar dilution method
Veillonella = experiment: Antibacterial activity against Veillonella spp. obtained from complicated skin and skin structure infections by agar dilution method
Staphylococcus capitis = experiment: Antibacterial activity against coagulase-negative Staphylococcus capitis obtained from complicated skin and skin structure infections by agar dilution method
Enterobacter amnigenus = experiment: Antibacterial activity against Enterobacter amnigenus obtained from complicated skin and skin structure infections by agar dilution method; settings: Lelliottia amnigena
[1] = system: Stenotrophomonas maltophilia; experiment: Antibacterial activity against Stenotrophomonas maltophilia obtained from complicated skin and skin structure infections by agar dilution method
Acinetobacter baumannii = experiment: Antibacterial activity against Acinetobacter baumannii obtained from complicated skin and skin structure infections by agar dilution method
Staphylococcus warneri = experiment: Antibacterial activity against coagulase-negative Staphylococcus warneri obtained from complicated skin and skin structure infections by agar dilution method
[2] = system: Staphylococcus saprophyticus; experiment: Antibacterial activity against coagulase-negative Staphylococcus saprophyticus obtained from complicated skin and skin structure infections by agar dilution method
Enterococcus faecium = experiment: Antibacterial activity against Enterococcus faecium obtained from complicated skin and skin structure infections by agar dilution method
Klebsiella pneumoniae = experiment: Antibacterial activity against Klebsiella pneumoniae obtained from complicated skin and skin structure infections by agar dilution method
Prevotella = experiment: Antibacterial activity against Prevotella spp. obtained from complicated skin and skin structure infections by agar dilution method
Enterobacter cloacae = experiment: Antibacterial activity against Enterobacter cloacae obtained from complicated skin and skin structure infections by agar dilution method
Salmonella = experiment: Antibacterial activity against Salmonella spp. obtained from complicated skin and skin structure infections by agar dilution method
Staphylococcus aureus [3] = experiment: Antibacterial activity against methicillin susceptible Staphylococcus aureus obtained from complicated skin and skin structure infections by agar dilution method
[4] = system: Staphylococcus epidermidis; experiment: Antibacterial activity against coagulase-negative Staphylococcus epidermidis obtained from complicated skin and skin structure infections by agar dilution method
Staphylococcus aureus [5] = experiment: Antibacterial activity against methicillin resistant Staphylococcus aureus obtained from complicated skin and skin structure infections by agar dilution method
Proteus penneri = experiment: Antibacterial activity against Proteus penneri obtained from complicated skin and skin structure infections by agar dilution method
[6] = system: Streptococcus constellatus; experiment: Antibacterial activity against Streptococcus constellatus obtained from complicated skin and skin structure infections by agar dilution method
Proteus vulgaris = experiment: Antibacterial activity against Proteus vulgaris obtained from complicated skin and skin structure infections by agar dilution method
Mammaliicoccus sciuri = experiment: Antibacterial activity against coagulase-negative Staphylococcus sciuri obtained from complicated skin and skin structure infections by agar dilution method
Staphylococcus hominis = experiment: Antibacterial activity against coagulase-negative Staphylococcus hominis obtained from complicated skin and skin structure infections by agar dilution method
Serratia marcescens = experiment: Antibacterial activity against Serratia marcescens obtained from complicated skin and skin structure infections by agar dilution method
[7] = Antibacterial activity against Streptococcus sp. 'group C' obtained from complicated skin and skin structure infections by agar dilution method
Staphylococcus aureus [8] = experiment: Antibacterial activity against Staphylococcus aureus obtained from complicated skin and skin structure infections by agar dilution method
Proteus mirabilis = experiment: Antibacterial activity against Proteus mirabilis obtained from complicated skin and skin structure infections by agar dilution method
Klebsiella oxytoca = experiment: Antibacterial activity against Klebsiella oxytoca obtained from complicated skin and skin structure infections by agar dilution method
[9] = system: Staphylococcus lugdunensis; experiment: Antibacterial activity against coagulase-negative Staphylococcus lugdunensis obtained from complicated skin and skin structure infections by agar dilution method
Pseudomonas fluorescens = experiment: Antibacterial activity against Pseudomonas fluorescens obtained from complicated skin and skin structure infections by agar dilution method
Aerococcus viridans = experiment: Antibacterial activity against Aerococcus viridans obtained from complicated skin and skin structure infections by agar dilution method
Lactococcus lactis = experiment: Antibacterial activity against Lactococcus lactis obtained from complicated skin and skin structure infections by agar dilution method
[10] = system: Staphylococcus intermedius; experiment: Antibacterial activity against Staphylococcus intermedius obtained from complicated skin and skin structure infections by agar dilution method
Citrobacter braakii = experiment: Antibacterial activity against Citrobacter braakii obtained from complicated skin and skin structure infections by agar dilution method
Citrobacter freundii = experiment: Antibacterial activity against Citrobacter freundii obtained from complicated skin and skin structure infections by agar dilution method
Gemella morbillorum = experiment: Antibacterial activity against Gemella morbillorum obtained from complicated skin and skin structure infections […]
Pseudomonas aeruginosa = experiment: Antibacterial activity against Pseudomonas aeruginosa obtained from complicated skin and skin structure infections by agar dilution method
Bacillus = experiment: Antibacterial activity against Bacillus spp. obtained from complicated skin and skin structure infections by agar dilution method
Bacteroides fragilis = experiment: Antibacterial activity against Bacteroides fragilis obtained from complicated skin and skin structure infections by agar dilution method
Escherichia coli = experiment: Antibacterial activity against Escherichia coli obtained from complicated skin and skin structure infections by agar dilution method
Enterococcus faecalis = experiment: Antibacterial activity against Enterococcus faecalis obtained from complicated skin and skin structure infections by agar dilution method
Morganella morganii = experiment: Antibacterial activity against Morganella morganii obtained from complicated skin and skin structure infections by agar dilution method
Gemella = experiment: Antibacterial activity against Gemella spp. obtained from complicated skin and skin structure infections by agar dilution method
Klebsiella aerogenes = experiment: Antibacterial activity against Enterobacter aerogenes obtained from complicated skin and skin structure infections by agar dilution method
Streptococcus mitis = experiment: Antibacterial activity against Streptococcus mitis obtained from complicated skin and skin structure infections by agar dilution method
[11] = system: Staphylococcus haemolyticus; experiment: Antibacterial activity against coagulase-negative Staphylococcus haemolyticus obtained from complicated skin and skin structure infections by agar dilution method
[12] = system: Staphylococcus lugdunensis; experiment: Antibacterial activity against methicillin-resistant, oxacillin-susceptible, coagulase-negative, mecA-positive Staphylococcus lugdunensis obtained from complicated skin and skin structure infections by agar dilution method
[13] = Antibacterial activity against Streptococcus sp. 'group G' obtained from complicated skin and skin structure infections by agar dilution method
Streptococcus pyogenes = experiment: Antibacterial activity against Streptococcus pyogenes obtained from complicated skin and skin structure infections by agar dilution method
Staphylococcus cohnii = experiment: Antibacterial activity against coagulase-negative Staphylococcus cohnii obtained from complicated skin and skin structure infections by agar dilution method
Providencia stuartii = experiment: Antibacterial activity against Providencia stuartii obtained from complicated skin and skin structure infections by agar dilution method

Compound: Nc1nc(/C(=N/O)C(=O)N[C@@H]2C(=O)N3C(C(=O)O)=C(/C=C4\CCN([C@@H]5CCNC5)C4=O)CS[C@H]23)ns1 [CEFTOBIPROLE]
- MIC50 (Staphylococcus): 0.25 µg/mL (≈ 0.468 µM)
- MIC90 (Staphylococcus): 0.5 µg/mL (≈ 0.935 µM)
- MIC50 (Streptococcus agalactiae): 0.06 µg/mL (≈ 0.112 µM)
- MIC90 (Streptococcus agalactiae): 0.12 µg/mL (≈ 0.224 µM)
- MIC50 (Micrococcus): 0.12 µg/mL (≈ 0.224 µM)
- MIC90 (Micrococcus): 0.25 µg/mL (≈ 0.468 µM)
- MIC (Veillonella): ≤ 0.03 µg/mL
- MIC50 (Staphylococcus capitis): 0.5 µg/mL (≈ 0.935 µM)
- MIC90 (Staphylococcus capitis): 1 µg/mL (≈ 1.87 µM)
- MIC50 (Enterobacter amnigenus): 0.06 µg/mL (≈ 0.112 µM)
- MIC90 (Enterobacter amnigenus): 32 µg/mL (≈ 59.9 µM)
- MIC50 [1]: > 64 µg/mL
- MIC90 [1]: > 64 µg/mL
- MIC50 (Acinetobacter baumannii): > 64 µg/mL
- MIC90 (Acinetobacter baumannii): > 64 µg/mL
- MIC50 (Staphylococcus warneri): 0.5 µg/mL (≈ 0.935 µM)
- MIC90 (Staphylococcus warneri): 1 µg/mL (≈ 1.87 µM)
- MIC50 [2]: 0.5 µg/mL (≈ 0.935 µM)
- MIC90 [2]: 1 µg/mL (≈ 1.87 µM)
- MIC50 (Enterococcus faecium): > 64 µg/mL
- MIC50 (Klebsiella pneumoniae): 0.06 µg/mL (≈ 0.112 µM)
- MIC90 (Klebsiella pneumoniae): 32 µg/mL (≈ 59.9 µM)
- MIC (Prevotella): ≤ 0.03 µg/mL
- MIC50 (Enterobacter cloacae): 0.06 µg/mL (≈ 0.112 µM)
- MIC90 (Enterobacter cloacae): > 64 µg/mL
- MIC50 (Salmonella): 0.06 µg/mL (≈ 0.112 µM)
- MIC90 (Salmonella): 32 µg/mL (≈ 59.9 µM)
- MIC50 (Staphylococcus aureus [3]): 0.25 µg/mL (≈ 0.468 µM)
- MIC90 (Staphylococcus aureus [3]): 0.5 µg/mL (≈ 0.935 µM)
- MIC50 [4]: 0.5 µg/mL (≈ 0.935 µM)
- MIC90 [4]: 1 µg/mL (≈ 1.87 µM)
- MIC50 (Staphylococcus aureus [5]): 0.5 µg/mL (≈ 0.935 µM)
- MIC90 (Staphylococcus aureus [5]): 2 µg/mL (≈ 3.74 µM)
- MIC50 (Proteus penneri): 0.06 µg/mL (≈ 0.112 µM)
- MIC90 (Proteus penneri): 32 µg/mL (≈ 59.9 µM)
- MIC50 [6]: 0.06 µg/mL (≈ 0.112 µM)
- MIC90 [6]: 0.12 µg/mL (≈ 0.224 µM)
- MIC50 (Proteus vulgaris): 0.06 µg/mL (≈ 0.112 µM)
- MIC90 (Proteus vulgaris): 32 µg/mL (≈ 59.9 µM)
- MIC50 (Mammaliicoccus sciuri): 0.5 µg/mL (≈ 0.935 µM)
- MIC90 (Mammaliicoccus sciuri): 1 µg/mL (≈ 1.87 µM)
- MIC50 (Staphylococcus hominis): 0.5 µg/mL (≈ 0.935 µM)
- MIC90 (Staphylococcus hominis): 1 µg/mL (≈ 1.87 µM)
- MIC50 (Serratia marcescens): 0.06 µg/mL (≈ 0.112 µM)
- MIC90 (Serratia marcescens): 32 µg/mL (≈ 59.9 µM)
- MIC50 [7]: 0.06 µg/mL (≈ 0.112 µM)
- MIC90 [7]: 0.12 µg/mL (≈ 0.224 µM)
- MIC50 (Staphylococcus aureus [8]): 0.5 µg/mL (≈ 0.935 µM)
- MIC90 (Staphylococcus aureus [8]): 1 µg/mL (≈ 1.87 µM)
- MIC50 (Proteus mirabilis): 0.03 µg/mL (≈ 0.0561 µM)
- MIC90 (Proteus mirabilis): 0.12 µg/mL (≈ 0.224 µM)
- MIC50 (Klebsiella oxytoca): 0.06 µg/mL (≈ 0.112 µM)
- MIC90 (Klebsiella oxytoca): 32 µg/mL (≈ 59.9 µM)
- MIC50 [9]: 0.5 µg/mL (≈ 0.935 µM)
- MIC90 [9]: 1 µg/mL (≈ 1.87 µM)
- MIC50 (Pseudomonas fluorescens): > 64 µg/mL
- MIC90 (Pseudomonas fluorescens): > 64 µg/mL
- MIC50 (Aerococcus viridans): 0.12 µg/mL (≈ 0.224 µM)
- MIC90 (Aerococcus viridans): 0.25 µg/mL (≈ 0.468 µM)
- MIC50 (Lactococcus lactis): 0.12 µg/mL (≈ 0.224 µM)
- MIC90 (Lactococcus lactis): 0.25 µg/mL (≈ 0.468 µM)
- MIC50 [10]: 0.06 µg/mL (≈ 0.112 µM)
- MIC90 [10]: 0.12 µg/mL (≈ 0.224 µM)
- MIC50 (Citrobacter braakii): 0.06 µg/mL (≈ 0.112 µM)
- MIC90 (Citrobacter braakii): 32 µg/mL (≈ 59.9 µM)
- MIC50 (Citrobacter freundii): 0.06 µg/mL (≈ 0.112 µM)
- MIC90 (Citrobacter freundii): 32 µg/mL (≈ 59.9 µM)
- MIC50 (Gemella morbillorum): 0.12 µg/mL (≈ 0.224 µM)
- MIC90 (Gemella morbillorum): 0.25 µg/mL (≈ 0.468 µM)
- MIC50 (Pseudomonas aeruginosa): 4 µg/mL (≈ 7.48 µM)
- MIC90 (Pseudomonas aeruginosa): > 64 µg/mL
- MIC50 (Bacillus): 0.12 µg/mL (≈ 0.224 µM)
- MIC90 (Bacillus): 0.25 µg/mL (≈ 0.468 µM)
- MIC (Bacteroides fragilis): ≤ 0.03 µg/mL
- MIC50 (Escherichia coli): 0.06 µg/mL (≈ 0.112 µM)
- MIC90 (Escherichia coli): 0.12 µg/mL (≈ 0.224 µM)
- MIC50 (Enterococcus faecalis): 0.5 µg/mL (≈ 0.935 µM)
- MIC90 (Enterococcus faecalis): 0.5 µg/mL (≈ 0.935 µM)
- MIC50 (Morganella morganii): 0.12 µg/mL (≈ 0.224 µM)
- MIC90 (Morganella morganii): 64 µg/mL (≈ 120 µM)
- MIC50 (Gemella): 0.12 µg/mL (≈ 0.224 µM)
- MIC90 (Gemella): 0.25 µg/mL (≈ 0.468 µM)
- MIC50 (Klebsiella aerogenes): 0.06 µg/mL (≈ 0.112 µM)
- MIC90 (Klebsiella aerogenes): 32 µg/mL (≈ 59.9 µM)
- MIC50 (Streptococcus mitis): 0.06 µg/mL (≈ 0.112 µM)
- MIC90 (Streptococcus mitis): 0.12 µg/mL (≈ 0.224 µM)
- MIC50 [11]: 0.5 µg/mL (≈ 0.935 µM)
- MIC90 [11]: 1 µg/mL (≈ 1.87 µM)
- MIC50 [12]: 0.5 µg/mL (≈ 0.935 µM)
- MIC90 [12]: 2 µg/mL (≈ 3.74 µM)
- MIC50 [13]: 0.008 µg/mL (≈ 0.015 µM)
- MIC90 [13]: 0.06 µg/mL (≈ 0.112 µM)
- MIC (Streptococcus pyogenes): 0.008 µg/mL (≈ 0.015 µM)
- MIC50 (Streptococcus pyogenes): 0.008 µg/mL (≈ 0.015 µM)
- MIC90 (Streptococcus pyogenes): 0.015 µg/mL (≈ 0.0281 µM)
- MIC50 (Staphylococcus cohnii): 0.5 µg/mL (≈ 0.935 µM)
- MIC90 (Staphylococcus cohnii): 1 µg/mL (≈ 1.87 µM)
- MIC50 (Providencia stuartii): 0.06 µg/mL (≈ 0.112 µM)
- MIC90 (Providencia stuartii): 32 µg/mL (≈ 59.9 µM)

Source: ChEMBL document CHEMBL1275492, “In vitro activity of ceftobiprole against pathogens from two phase 3 clinical trials of complicated skin and skin structure infections” (2008)
